Experiments:
[1] = test system: 5-HT2C; experiment: 5-HT receptor binding, displacement of tritiated ligands; settings: at 10 μM
Description: (§1) 5-HT receptor binding was measured using membrane preparations of brain regions known to be enriched with given 5-HT receptor subtype(s). The assay subsequently measured the displacement of tritiated ligands known to bind to a given 5-HT subtype.
(§2) A receptor binding assay was performed for ICI-1259 and ICI-1260 showing that at 10 μM, these compounds bind receptors 5-HT1A(h), 5-HT1B, 5-HT1D(h), 5-HT2A, 5-HT2A(h), 5-HT2B, 5-HT2C, 5-HT3,5-HT3(h), 5-HT4, 5-HT5A(h), 5-HT6, and 5-HT7.

[2] = target: T1, 5-HT2A(h) (Homo sapiens, UniProt P28223); experiment: as above; settings: at 10 μM
T1 construct: from tissue
Description: as §1, §2

[3] = test system: 5-HT3; experiment: as above; settings: at 10 μM
Description: as §1, §2

[4] = target: T2, 5-HT1D(h) (Homo sapiens, UniProt P28221); experiment: as above; settings: at 10 μM
T2 construct: from tissue
Description: as §1, §2

[5] = test system: 5-HT4; experiment: as above; settings: at 10 μM
Description: as §1, §2

[6] = target: T3, 5-HT5A(h) (Homo sapiens, UniProt P47898); experiment: as above; settings: at 10 μM
T3 construct: from tissue
Description: as §1, §2

[7] = target: T4, 5-HT2B (Homo sapiens, UniProt P41595); experiment: as above; settings: at 10 μM
T4 construct: from tissue
Description: as §1, §2

[8] = test system: 5-HT7; experiment: as above; settings: at 10 μM
Description: as §1, §2

[9] = test system: 5-HT6; experiment: as above; settings: at 10 μM
Description: as §1, §2

[10] = target: T5, 5-HT1A(h) (Homo sapiens, UniProt P08908); experiment: as above; settings: at 10 μM
T5 construct: from tissue
T5 sequence (P08908 1-422): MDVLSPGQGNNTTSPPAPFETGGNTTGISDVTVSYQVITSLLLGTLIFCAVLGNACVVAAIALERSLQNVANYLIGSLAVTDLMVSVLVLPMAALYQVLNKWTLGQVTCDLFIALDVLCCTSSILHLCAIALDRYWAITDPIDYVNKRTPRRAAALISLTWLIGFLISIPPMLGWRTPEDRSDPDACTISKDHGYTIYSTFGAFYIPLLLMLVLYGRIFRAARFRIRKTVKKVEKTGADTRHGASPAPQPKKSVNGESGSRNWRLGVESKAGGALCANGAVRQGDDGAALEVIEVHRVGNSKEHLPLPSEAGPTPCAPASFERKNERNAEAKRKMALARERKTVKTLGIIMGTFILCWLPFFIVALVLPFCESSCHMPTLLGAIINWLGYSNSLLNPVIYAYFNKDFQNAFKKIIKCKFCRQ
Description: as §1, §2

[11] = test system: 5-HT1B; experiment: as above; settings: at 10 μM
Description: as §1, §2

[12] = test system: 5-HT2A; experiment: as above; settings: at 10 μM
Description: as §1, §2

[13] = target: T6, 5-HT3(h) (Homo sapiens, UniProt P46098); experiment: as above; settings: at 10 μM
T6 construct: from tissue
T6 sequence (P46098 24-478): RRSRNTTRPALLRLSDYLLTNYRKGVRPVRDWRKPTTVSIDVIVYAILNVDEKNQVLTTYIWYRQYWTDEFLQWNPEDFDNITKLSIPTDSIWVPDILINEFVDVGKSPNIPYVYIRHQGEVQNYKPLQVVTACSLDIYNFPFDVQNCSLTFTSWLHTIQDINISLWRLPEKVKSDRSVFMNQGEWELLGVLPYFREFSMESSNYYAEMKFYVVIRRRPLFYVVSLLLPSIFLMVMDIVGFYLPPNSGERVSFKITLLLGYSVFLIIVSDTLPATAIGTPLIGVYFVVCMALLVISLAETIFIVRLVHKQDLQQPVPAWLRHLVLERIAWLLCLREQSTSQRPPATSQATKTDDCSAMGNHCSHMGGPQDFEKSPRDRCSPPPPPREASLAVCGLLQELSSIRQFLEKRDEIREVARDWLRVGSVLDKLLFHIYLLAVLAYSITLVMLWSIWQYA
Description: as §1, §2

[14] = test system: bovine type 2 collagen immunized female Lewis rats; experiment: Collagen-induced arthritis assay, oral gavage treatment, ankle diameter; assay type: in vivo, rat
Description: Female Lewis rats (CR) weighing between 125-200 g were immunized with bovine type 2 collagen, 2 mg/ml in a 1:1 solution of 0.01 N acetic acid and Freund's incomplete adjuvant (“FIA”). A 0.1 ml portion of the collagen solution was injected id (intradermally) at three sites on the rat. Rats were immunized with the collagen solution on days 1 and 6 of the study. […] On day 9 (study day “0”), baseline ankle diameters were measured. On days 10-15 (study days 1-6), the rats were then treated, via oral gavage, with either 1, 5, or 25 mg/kg of one of ICI-1259 or ICI-1260, prepared as described below. Ankle diameter measurements were measured on each of days 10-16.
Separate solutions of ICI-1259 and ICI-1260 were prepared in Dulbecco's PBS (pH 7) (“vehicle”) at 1 mg/ml. Control animals, who had not been immunized, were given vehicle without any compound. In a further control, immunized rats were given vehicle without ICI-1259 or ICI-1260. In still another control, immunized rats were treated with Enbrel™ at 10 mg/kg.

T4 sequence (P41595 whole entry, species assumed): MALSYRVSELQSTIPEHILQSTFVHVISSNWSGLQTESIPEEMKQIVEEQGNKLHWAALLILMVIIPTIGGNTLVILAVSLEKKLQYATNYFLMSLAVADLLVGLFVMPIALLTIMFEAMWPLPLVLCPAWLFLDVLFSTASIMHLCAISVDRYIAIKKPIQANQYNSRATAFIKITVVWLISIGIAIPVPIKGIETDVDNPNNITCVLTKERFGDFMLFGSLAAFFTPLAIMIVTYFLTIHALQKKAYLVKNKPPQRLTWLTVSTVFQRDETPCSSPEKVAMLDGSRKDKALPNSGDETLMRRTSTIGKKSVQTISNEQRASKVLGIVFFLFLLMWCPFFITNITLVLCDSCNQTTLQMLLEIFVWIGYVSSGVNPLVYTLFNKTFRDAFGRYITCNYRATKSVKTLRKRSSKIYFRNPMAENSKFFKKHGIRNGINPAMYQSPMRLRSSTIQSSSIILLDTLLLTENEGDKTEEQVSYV
T2 sequence (P28221 whole entry): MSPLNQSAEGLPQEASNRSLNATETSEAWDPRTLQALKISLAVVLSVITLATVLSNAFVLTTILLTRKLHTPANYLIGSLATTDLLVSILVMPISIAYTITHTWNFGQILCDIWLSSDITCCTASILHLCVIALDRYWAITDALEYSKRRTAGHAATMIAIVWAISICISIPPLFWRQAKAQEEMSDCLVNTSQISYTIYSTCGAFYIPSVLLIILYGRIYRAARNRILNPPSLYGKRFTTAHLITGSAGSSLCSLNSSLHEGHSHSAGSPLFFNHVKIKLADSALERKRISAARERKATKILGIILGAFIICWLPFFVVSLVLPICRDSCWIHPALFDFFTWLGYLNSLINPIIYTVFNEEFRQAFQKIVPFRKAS
T3 sequence (P47898 whole entry): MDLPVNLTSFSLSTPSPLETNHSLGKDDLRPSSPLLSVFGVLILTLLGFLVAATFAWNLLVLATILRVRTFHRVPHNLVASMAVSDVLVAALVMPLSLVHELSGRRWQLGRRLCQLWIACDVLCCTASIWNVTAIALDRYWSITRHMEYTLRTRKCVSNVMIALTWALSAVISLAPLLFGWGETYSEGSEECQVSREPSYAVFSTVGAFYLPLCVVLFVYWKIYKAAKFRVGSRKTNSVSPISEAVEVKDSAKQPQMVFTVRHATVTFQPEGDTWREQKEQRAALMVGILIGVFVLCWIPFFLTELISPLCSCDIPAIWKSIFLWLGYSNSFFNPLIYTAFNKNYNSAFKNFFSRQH
T1 sequence (P28223 whole entry): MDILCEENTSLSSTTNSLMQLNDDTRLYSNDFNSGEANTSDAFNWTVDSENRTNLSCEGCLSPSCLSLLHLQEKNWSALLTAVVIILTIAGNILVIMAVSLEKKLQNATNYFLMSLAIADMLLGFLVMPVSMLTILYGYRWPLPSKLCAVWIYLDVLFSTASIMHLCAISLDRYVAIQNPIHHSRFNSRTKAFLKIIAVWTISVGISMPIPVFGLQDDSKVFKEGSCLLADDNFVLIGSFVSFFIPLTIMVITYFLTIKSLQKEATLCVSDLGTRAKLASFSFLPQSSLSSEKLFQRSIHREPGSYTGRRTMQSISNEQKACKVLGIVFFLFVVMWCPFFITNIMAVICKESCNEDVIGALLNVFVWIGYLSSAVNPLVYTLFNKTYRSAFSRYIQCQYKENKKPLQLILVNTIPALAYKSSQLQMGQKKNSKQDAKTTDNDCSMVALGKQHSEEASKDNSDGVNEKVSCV

Row | receptor binding [1] | receptor binding [2] | receptor binding [3] | receptor binding [4] | receptor binding [5] | receptor binding [6] | receptor binding [7] | receptor binding [8] | receptor binding [9] | receptor binding [10] | receptor binding [11] | receptor binding [12] | receptor binding [13] | Structure (SMILES) | reduction in ankle swelling ([14]; oral 5 mg/kg, larger standard errors at each dose) | reduction in ankle swelling ([14]; oral 25 mg/kg, larger standard errors at each dose) | reduction in ankle swelling ([14]; oral 25 mg/kg, study days 5-7)
1 | bind | bind | bind | bind | bind | bind | bind | bind | bind | bind | bind | bind | bind | NCC(=O)NCCCN1CCC(CCCN2c3ccccc3Sc3ccc(C(F)(F)F)cc32)CC1 [ICI-1260, 2-amino-N-(3-(4-(3-(2-(trifluoromethyl)-10H-phenothiazin-10-yl)propyl)piperidin-1-yl)propyl)acetamide] | showed a reduction in ankle swelling | showed a reduction in ankle swelling | 
2 | bind | bind | bind | bind | bind | bind | bind | bind | bind | bind | bind | bind | bind | CNCC(=O)NCCCN1CCC(CCCN2c3ccccc3Sc3ccc(C(F)(F)F)cc32)CC1 [ICI-1259, 2-(methylamino)-N-(3-(4-(3-(2-(trifluoromethyl)-10H-phenothiazin-10-yl)propyl)piperidin-1-yl)propyl)acetamide] |  |  | statistically significant reduction in ankle swelling

Reference: patent US20090275557A1, “Novel Composition for Treatment of Diseases Related to Activated Lymphocytes” (Immune Control, Inc., priority 2008, published 2009)
